This is an account of results in US9284321B2, “Piperazino[1,2-a]indol-1-ones and [1,4]diazepino[1,2-a]indol-1-one” (Hoffmann-La Roche Inc., priority 2012, dated 2016).

Data set [1] concerns human embryonic stem cell derived neural stem cells (NSCs). Description: Neural Stem Cell Proliferation Assay (neurogenesis assay, ATP levels by CellTiterGlo). The data set is classed as cell-based. Conditions: 96 h, compound concentration at which 150% activity of control (100%) is reached, NSC proliferation by ATP level after 4 days incubation, dose response 8 μM to 8 nM. In a few lines: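 Read-out is CellTiterGlo ATP luminescence after 4-day culture (37 °C, 5% CO2) of dual-SMAD-derived human ESC NSCs, dosed 4 h post-seeding at 8 μM to 8 nM (11 points, 2-fold). EC150 marks the concentration reaching 150% of the media-only control (0.25% DMSO).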

In general, melting point refers to the temperature, or range, at which the solid turns liquid.

For the molecule `Cc1c2n(c3c(-c4cccc(C#N)c4)cc(C#N)cc13)CCNC2=O` [Example 279, 6-(3-Cyanophenyl)-10-methyl-1-oxo-3,4-dihydro-2H-pyrazino[1,2-a]indole-8-carbonitrile], the melting point turned out to be 266 °C. Also, the EC (150% of control) in data set [1] worked out at 0.31 µM.

Regarding `N#Cc1cc(-c2ccc(F)c(F)c2)c2c(c1)cc1n2CCCNC1=O` [Example 217, 7-(3,4-Difluorophenyl)-1-oxo-2,3,4,5-tetrahydro-[1,4]diazepino[1,2-a]indole-9-carbonitrile], the melting point was 224.5 °C. The same molecule registered an EC (150% of control) in data set [1] of 0.51 µM.

In turn, `C[C@@H]1CNC(=O)c2cc3cc(F)cc(-c4ccc(C(F)(F)F)cc4)c3n21` [Example 13, (R)-8-Fluoro-4-methyl-6-(4-trifluoromethyl-phenyl)-3,4-dihydro-2H-pyrazino[1,2-a]indol-1-one] had a melting point of 307 °C. Also, in data set [1], the EC (150% of control) was found to be 0.16 µM.

`Cc1c2n(c3c(-c4ccc(F)cc4F)cc(F)cc13)CCNC2=O` [Example 122, 6-(2,4-Difluoro-phenyl)-8-fluoro-10-methyl-3,4-dihydro-2H-pyrazino[1,2-a]indol-1-one]: the melting point amounted to 204 °C. The molecule also showed an EC (150% of control) in data set [1] of 0.013 µM.

Take `Cc1c2n(c3c(-c4ccc(Cl)cc4)cc(F)cc13)CCNC2=O` [Example 73, 6-(4-Chloro-phenyl)-8-fluoro-10-methyl-3,4-dihydro-2H-pyrazino[1,2-a]indol-1-one]: the melting point was found to be 209.5 °C. The EC (150% of control) in data set [1] stood at 0.017 µM.

For the molecule `Cc1ccc(-c2cc(F)cc3cc4n(c23)CCCNC4=O)cc1` [Example 30, 9-Fluoro-7-p-tolyl-2,3,4,5-tetrahydro-[1,4]diazepino[1,2-a]indol-1-one], the melting point was 258.5 °C. The molecule also showed an EC (150% of control) in data set [1] of 0.036 µM.

`N#Cc1cc(-c2ccnc(Cl)c2)c2c(c1)cc1n2CCNC1=O` [Example 227, 6-(2-Chloropyridin-4-yl)-1-oxo-3,4-dihydro-2H-pyrazino[1,2-a]indole-8-carbonitrile] showed a melting point of 286 °C. Besides, the EC (150% of control) in data set [1] is 0.55 µM.

`Cc1c2n(c3c(-c4ccnc(Cl)c4)cc(F)cc13)CCNC2=O` [Example 140, 6-(2-Chloro-pyridin-4-yl)-8-fluoro-10-methyl-3,4-dihydro-2H-pyrazino[1,2-a]indol-1-one] showed a melting point of 254 °C. The molecule also registered an EC (150% of control) in data set [1] of 0.12 µM.

`N#Cc1cc(-c2cccc(C(F)(F)F)c2)c2c(c1)cc1n2CCNC1=O` [Example 195, 1-Oxo-6-[3-(trifluoromethyl)phenyl]-3,4-dihydro-2H-pyrazino[1,2-a]indole-8-carbonitrile] registered a melting point of 279.5 °C. In data set [1], this molecule yielded an EC (150% of control) of 1.4 µM.

Molecule `Cc1ccc(-c2cc(F)cc3c(C)c4n(c23)CCNC4=O)cc1F` [Example 147, 8-Fluoro-6-(3-fluoro-4-methyl-phenyl)-10-methyl-3,4-dihydro-2H-pyrazino[1,2-a]indol-1-one] came in with a melting point of 206 °C. The EC (150% of control) in data set [1] is 0.039 µM.

The molecule `Cc1c2n(c3c(-c4cnc(N)nc4)cc(F)cc13)CCNC2=O` [Example 157, 6-(2-Amino-pyrimidin-5-yl)-8-fluoro-10-methyl-3,4-dihydro-2H-pyrazino[1,2-a]indol-1-one] registered a melting point of 310 °C. Besides, the EC (150% of control) in data set [1] was found to be 0.19 µM.

`Cc1c2n(c3c(-c4ccc(C#N)cc4)cc(C#N)cc13)CCCNC2=O` [Example 200, 7-(4-Cyanophenyl)-11-methyl-1-oxo-2,3,4,5-tetrahydro-[1,4]diazepino[1,2-a]indole-9-carbonitrile] came in with a melting point of 314 °C. Also, the EC (150% of control) in data set [1] came to 0.041 µM.

The molecule `Cc1c2n(c3c(-c4ccc(CO)cc4)cc(C#N)cc13)CCNC2=O` [Example 277, 6-[4-(Hydroxymethyl)phenyl]-10-methyl-1-oxo-3,4-dihydro-2H-pyrazino[1,2-a]indole-8-carbonitrile] registered a melting point of 265 °C. In data set [1], the EC (150% of control) stood at 0.025 µM.
